Measurements: ChEMBL document CHEMBL1201862, “PubChem BioAssay data set” (2004)
The source made the active and inactive calls.

How the values were obtained:
[1] = Vero E6 cell cytotoxicity, dose response, cytotoxicity control for non-replicating M. tuberculosis project, secondary assay (AID 492998); format: functional, VeroE6; details: Vero C1008
[2] = THP-1 cell cytotoxicity, dose response, cytotoxicity control for non-replicating M. tuberculosis project (AID 489025); format: functional
Aminopeptidase N = target: T1, Aminopeptidase N (Plasmodium falciparum FcB1/Columbia, UniProt O96935); assay: malaria alanyl aminopeptidase activity blockers – biochemical, fluorogenic H-Leu-NHMec substrate, 1536-well (AID 1445); parameters: species or system Plasmodium falciparum 3D7, 3D7
T1 sequence (O96935 whole entry): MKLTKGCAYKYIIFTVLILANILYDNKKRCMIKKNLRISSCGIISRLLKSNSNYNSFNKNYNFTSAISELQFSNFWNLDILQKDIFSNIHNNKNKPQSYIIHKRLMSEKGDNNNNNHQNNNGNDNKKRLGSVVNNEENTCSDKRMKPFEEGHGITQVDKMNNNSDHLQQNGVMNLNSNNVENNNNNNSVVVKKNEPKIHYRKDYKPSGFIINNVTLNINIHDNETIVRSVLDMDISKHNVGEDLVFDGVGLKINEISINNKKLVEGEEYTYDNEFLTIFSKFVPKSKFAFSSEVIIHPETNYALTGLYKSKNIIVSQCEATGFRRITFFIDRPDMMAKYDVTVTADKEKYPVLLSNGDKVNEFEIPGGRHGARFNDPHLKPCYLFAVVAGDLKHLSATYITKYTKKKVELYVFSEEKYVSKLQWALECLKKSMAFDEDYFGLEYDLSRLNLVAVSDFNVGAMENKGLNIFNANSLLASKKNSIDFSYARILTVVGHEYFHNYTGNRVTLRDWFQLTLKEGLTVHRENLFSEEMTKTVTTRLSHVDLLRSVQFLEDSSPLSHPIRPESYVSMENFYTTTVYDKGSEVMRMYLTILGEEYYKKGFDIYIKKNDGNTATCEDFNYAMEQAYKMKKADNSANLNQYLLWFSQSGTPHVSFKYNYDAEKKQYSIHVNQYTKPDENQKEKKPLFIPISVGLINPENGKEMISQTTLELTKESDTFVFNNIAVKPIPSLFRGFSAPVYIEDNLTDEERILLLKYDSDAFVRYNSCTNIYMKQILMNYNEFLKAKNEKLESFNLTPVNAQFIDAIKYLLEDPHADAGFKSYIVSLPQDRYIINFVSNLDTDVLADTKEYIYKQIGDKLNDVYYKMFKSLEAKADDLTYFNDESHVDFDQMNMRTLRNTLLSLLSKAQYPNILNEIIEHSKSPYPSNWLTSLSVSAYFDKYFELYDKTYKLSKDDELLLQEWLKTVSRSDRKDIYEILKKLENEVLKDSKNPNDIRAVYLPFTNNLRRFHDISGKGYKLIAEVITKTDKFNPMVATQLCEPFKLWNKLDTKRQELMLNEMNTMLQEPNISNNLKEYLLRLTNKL

Nonstructural protein 1 = Nonstructural protein 1 (Influenza A virus, UniProt Q194T2); format: functional, Influenza A virus (A/California/07/2009(H1N1))
Chain of Nonstructural protein 1 (Q194T2 whole entry): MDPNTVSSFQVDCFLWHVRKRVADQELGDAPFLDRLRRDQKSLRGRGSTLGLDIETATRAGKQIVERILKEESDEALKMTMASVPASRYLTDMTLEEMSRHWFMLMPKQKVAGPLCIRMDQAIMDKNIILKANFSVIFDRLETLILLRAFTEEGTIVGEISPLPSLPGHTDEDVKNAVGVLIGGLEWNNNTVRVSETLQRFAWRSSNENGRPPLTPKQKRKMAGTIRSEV

cells = format: functional
[3] = Trypanosoma cruzi growth suppression in host cells – NIH3T3 host cells, beta-gal luminescence, confirmation (AID 2044); format: functional, cell-based;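 further: intracellular parasites grown in NIH/3T3 mouse fibroblasts as host cells; luminescent beta-galactosidase reporter signal from transgenic T. cruzi replicating inside host cells; inhibitors lower the luminescence signal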
[4] = NIH3T3 cell viability loss – ATP luminescence, mouse fibroblasts, counter-screen, dose response (AID 2010); format: functional, cell-based;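 further: cells exposed to compound for about 90 hours before reading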
[5] = target: T2, Ubiquitin-conjugating enzyme E2 N (Homo sapiens, UniProt P61088); format: functional;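 further: Dose-response confirmation in a TR-FRET assay detecting UBC13-driven polyubiquitin chain formation, inhibition measured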
T2 sequence (P61088 whole entry): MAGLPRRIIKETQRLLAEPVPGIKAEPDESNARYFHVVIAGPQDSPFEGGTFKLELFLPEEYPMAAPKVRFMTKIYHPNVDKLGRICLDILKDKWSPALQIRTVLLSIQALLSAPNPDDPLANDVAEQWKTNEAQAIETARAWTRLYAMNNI

Protein RecA = target: T3, Protein RecA (Mycobacterium tuberculosis, UniProt P9WHJ3); assay: Fluorescence Cell-Free Homogeneous Dose Retest to Identify Inhibitors of RecA-Intein Splicing Activity. [Related pubchem assays (depositor defined):AID2097, AID2223, AID489010, AID492950]; format: functional
T3 sequence (P9WHJ3 whole entry): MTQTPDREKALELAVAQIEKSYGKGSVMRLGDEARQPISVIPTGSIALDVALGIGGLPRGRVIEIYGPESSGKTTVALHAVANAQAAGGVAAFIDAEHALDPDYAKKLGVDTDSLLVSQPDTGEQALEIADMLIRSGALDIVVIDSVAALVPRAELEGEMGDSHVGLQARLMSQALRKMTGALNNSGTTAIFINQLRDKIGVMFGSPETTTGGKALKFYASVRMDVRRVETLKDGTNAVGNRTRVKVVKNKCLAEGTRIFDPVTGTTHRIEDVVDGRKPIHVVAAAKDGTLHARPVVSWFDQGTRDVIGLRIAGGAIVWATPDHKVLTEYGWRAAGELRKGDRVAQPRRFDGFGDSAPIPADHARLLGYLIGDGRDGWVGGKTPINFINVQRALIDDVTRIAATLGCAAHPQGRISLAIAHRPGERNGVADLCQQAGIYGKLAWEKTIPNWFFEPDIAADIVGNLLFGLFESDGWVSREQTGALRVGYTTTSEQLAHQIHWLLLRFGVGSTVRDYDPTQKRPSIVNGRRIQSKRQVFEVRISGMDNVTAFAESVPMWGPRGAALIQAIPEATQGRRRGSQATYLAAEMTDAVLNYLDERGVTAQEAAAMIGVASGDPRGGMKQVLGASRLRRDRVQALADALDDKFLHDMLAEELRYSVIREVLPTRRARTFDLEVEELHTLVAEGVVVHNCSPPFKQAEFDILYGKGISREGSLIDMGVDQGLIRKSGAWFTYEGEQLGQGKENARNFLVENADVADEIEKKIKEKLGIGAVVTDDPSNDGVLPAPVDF

[6] = target: T4, Replicative DNA helicase DnaB (Mycobacterium tuberculosis, UniProt P9WMR3); assay: DnaB intein splicing inhibitors, dose response, biochemical, cell-free fluorescence (AID 449749); format: functional
T4 sequence (P9WMR3 whole entry): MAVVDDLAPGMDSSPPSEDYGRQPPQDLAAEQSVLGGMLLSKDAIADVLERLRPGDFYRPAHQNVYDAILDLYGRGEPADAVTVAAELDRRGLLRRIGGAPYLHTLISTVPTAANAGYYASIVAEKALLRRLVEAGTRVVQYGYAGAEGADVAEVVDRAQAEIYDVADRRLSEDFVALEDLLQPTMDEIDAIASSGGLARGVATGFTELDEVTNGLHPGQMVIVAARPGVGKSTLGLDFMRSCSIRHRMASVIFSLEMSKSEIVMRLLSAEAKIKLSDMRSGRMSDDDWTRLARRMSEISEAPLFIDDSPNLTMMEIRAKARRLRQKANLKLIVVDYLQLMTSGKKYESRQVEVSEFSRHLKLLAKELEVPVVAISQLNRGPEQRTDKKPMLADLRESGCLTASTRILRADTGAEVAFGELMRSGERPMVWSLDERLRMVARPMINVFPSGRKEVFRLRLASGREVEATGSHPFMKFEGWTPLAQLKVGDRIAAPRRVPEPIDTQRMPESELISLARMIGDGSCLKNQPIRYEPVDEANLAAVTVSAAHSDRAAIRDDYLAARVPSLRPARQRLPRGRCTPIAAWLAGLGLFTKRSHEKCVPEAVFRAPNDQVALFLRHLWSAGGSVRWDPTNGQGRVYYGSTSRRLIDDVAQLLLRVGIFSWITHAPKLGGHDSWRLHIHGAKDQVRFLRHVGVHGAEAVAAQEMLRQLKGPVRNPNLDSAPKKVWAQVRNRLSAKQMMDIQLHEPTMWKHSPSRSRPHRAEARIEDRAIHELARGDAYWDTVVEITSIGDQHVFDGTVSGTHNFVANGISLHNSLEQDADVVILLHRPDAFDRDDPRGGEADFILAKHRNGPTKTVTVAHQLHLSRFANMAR

Genome polyprotein = Genome polyprotein (dengue virus type 2, UniProt P29990); assay: flavivirus cap methylation enzyme inhibition – biochemical, confirmation dose response, primary screen (AID 588689); format: functional
Chain of Genome polyprotein (P29990 2492-3391 limits assumed): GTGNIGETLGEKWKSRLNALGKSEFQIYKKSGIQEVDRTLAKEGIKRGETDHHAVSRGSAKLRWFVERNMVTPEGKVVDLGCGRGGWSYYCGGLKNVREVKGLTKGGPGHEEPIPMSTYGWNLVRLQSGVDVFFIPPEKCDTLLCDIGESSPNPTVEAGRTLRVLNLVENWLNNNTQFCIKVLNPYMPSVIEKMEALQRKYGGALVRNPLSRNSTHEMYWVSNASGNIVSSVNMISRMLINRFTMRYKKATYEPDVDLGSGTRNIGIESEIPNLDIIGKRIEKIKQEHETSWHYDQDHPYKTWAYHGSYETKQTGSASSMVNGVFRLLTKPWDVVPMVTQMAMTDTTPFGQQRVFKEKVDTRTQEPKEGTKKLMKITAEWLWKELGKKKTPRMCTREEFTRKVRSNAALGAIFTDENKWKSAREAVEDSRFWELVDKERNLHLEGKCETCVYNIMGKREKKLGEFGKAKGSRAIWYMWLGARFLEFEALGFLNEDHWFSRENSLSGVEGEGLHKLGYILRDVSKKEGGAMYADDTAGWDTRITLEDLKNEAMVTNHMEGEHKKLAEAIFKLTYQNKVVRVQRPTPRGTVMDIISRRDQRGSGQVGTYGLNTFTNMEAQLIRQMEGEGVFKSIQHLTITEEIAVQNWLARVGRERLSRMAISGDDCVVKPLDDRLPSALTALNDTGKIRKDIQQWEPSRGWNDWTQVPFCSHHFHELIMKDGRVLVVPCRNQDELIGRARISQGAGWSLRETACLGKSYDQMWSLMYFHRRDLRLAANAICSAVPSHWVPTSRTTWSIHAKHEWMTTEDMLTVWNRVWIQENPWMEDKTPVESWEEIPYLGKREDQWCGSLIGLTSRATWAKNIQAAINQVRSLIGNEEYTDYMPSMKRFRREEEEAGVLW

| SMILES | CC50 [1] | CC50 [2] | IC50 (Aminopeptidase N) | other results |
| --- | --- | --- | --- | --- |
| COc1ccc(CCCC(=O)NCc2ccccc2)cc1C | > 20 µM (active) | 9.44 µM (active) | – | – |
| O=C1c2cccc3cccc(c23)C(=O)N1CCCc1nnc(S)n1-c1ccccc1 | – | – | 17.9 µM (active) | – |
| COc1cc(/C=C2\SC(c3ccccc3)=NC2=O)cc(Cl)c1O | – | – | 20 µM (active) | IC50 (Nonstructural protein 1): 12.7 µM (active) |
| O=C(CC(=O)c1ccccc1O)c1cccc(F)c1 | 16.5 µM (active) | > 40 µM (active) | – | IC50 (cells): 17.4 µM (active) |
| O=C(Nc1ccccc1N1CCN(C(=O)c2ccc(Cl)cc2)CC1)c1ccc([N+](=O)[O-])o1 | 5.96 µM (active) | 12.8 µM (active) | – | EC50 [3]: 1.32 µM (active); EC50 [4]: 37.2 µM (active) |
| Cc1ccsc1C(C(=O)NC1CCCCC1)N(C(=O)c1csnn1)C1CC1 (stereo unspecified) | – | – | 87.7 µM (active) | – |
| CCc1ccc(OCC(=O)NNC(=O)c2cnccn2)c(Br)c1 | 18.8 µM (active) | > 40 µM (active) | – | IC50 [5]: > 20 µM (inactive); IC50 (cells): 9.66 µM (active) |
| Oc1c2c(nc3c(-c4ccccc4)cnn13)CCCC2 | > 20 µM (active) | > 40 µM (active) | – | IC50 (cells): 44 µM (active) |
| Cc1oc2cc([N+](=O)[O-])c(O)c([N+](=O)[O-])c2c1C(=O)c1ccc(Br)cc1 | – | – | 77 µM (active) | EC50 (Protein RecA): 7.96 µM (active); AC50 [6]: 8.65 µM (active); IC50 (Genome polyprotein): 45.2 µM (active) |
| CCCCN(CC)Cc1c(O)ccc2c3c(c(=O)oc12)CCC3 | – | – | 57.7 µM (active) | – |
| O=C(N/N=C/c1ccccc1C(=O)O)c1cc(-c2ccc3c4c(cccc24)CC3)[nH]n1 | – | – | 85.2 µM (active) | – |
